Experimental data as given in patent publication US9944591B2, “Active compound and related composition for dermatological use in the pharmaceutical or cosmetic field” (GIULIANI S.P.A., priority 2014, dated 2018).

Experiments:
[1] = test system: ROS (reactive oxygen species); experiment: Production of ROS by DCFH-DA assay (H2O2-induced oxidative stress); type: cell-based, human
[2] = test system: TNF-α; experiment: Anti-inflammatory effects through gene expression of TNF-alpha on keratinocytes (qRT-PCR); type: cell-based; settings: human keratinocytes NCTC 2544, 5 μM, 24 h, LPS 5 μg/ml; FIG. 3
Protocol: In such further test, an immortalized line of human keratinocytes NCTC 2544 is used (Perry V. P. et al., 1957) cultured in sterile flasks ([…]), incubated at 37° C. in a humid atmosphere at 5% CO2 in culture medium MEM (Minimum Essential Medium) supplemented with 10% fetal bovine serum (FBS), 2 mM glutamine, 1% non-essential amino acids, in the presence of 1% penicillin and streptomycin.
When the cells (human keratinocytes NCTC 2544) reached about 80% confluence, they were detached with trypsin/EDTA and seeded at a density of 1×10^6 cells/ml in 12-well plates and incubated at 37° C., 5% CO2 (24 h). […]
The effect of the compounds object of the study on the gene expression of TNF-α was evaluated by quantitative RT-PCR (quantitative reverse transcription-polymerasechainreaction-qRT-PCR). […]
Using a spectrophotometer (Jenway UV/VIS MOD: 6715, BS-6715B0), concentrations were calculated in μg/mL of total RNA extracted at a wavelength of 260 nm.
(§1) Finally, the integrity of RNA (2 μg/mL) was assessed by means of an electrophoresis run on 1% agarose gel. […]
(§2) Extracted and quantified RNA was diluted to a concentration of 2 μg/mL and reverse transcribed into cDNA. […]

[3] = test system: HAS1 (Hyaluronan Synthase 1); experiment: Gene expression of HAS1 (hyaluronan synthase 1) on fibroblasts (qRT-PCR); type: cell-based; settings: BALB3T3 mouse fibroblasts, 24 h, 2.5 and 5 μM, FIG. 4
Protocol: In this third test, the mouse fibroblast cell line Balb 3T3 Clone A31 (ATCC CCL-163™) (Aaronson and Todaro, 1968) was used, cultured in sterile flasks ([…]), incubated at 37° C. in a humid atmosphere at 5% CO2 in DMEM (Dulbecco's Modified Eagle's Medium) added with 10% bovine fetal serum (CBS), 1% non-essential amino acids, in the presence of 1% penicillin and streptomycin.
The 1:3 split is done every 2 days upon achieving the monolayer by washing with 1×PBS (phosphate buffer without Ca^2+ and Mg^2+) and detachment of cells with a trypsin-EDTA solution at 37° C. for 2 minutes. […]
Gene expression of HAS1 in BALB3T3 cells was evaluated by relative quantitative RT-PCR (quantitative reverse transcription-polymerase chain reaction-qRT-PCR). […]
At the end of incubation with the active compounds of interest, cells were washed with PBS (1×) and finally subjected to RNA extraction procedure. At the end of the extraction, using a spectrophotometer (Jenway UV/VIS MOD: 6715, BS-6715B0), concentrations were calculated in μg/mL of total RNA extracted at a wavelength of 260 nm.
as §1, §2
The Taqman probe is a type of probe that allows the development of fluorescence as the amplification advances. […]

C/C=C/C=C/C=C/C(=O)NCCCC(=O)O [compound of the invention, 4-((2E,4E,6E)-octa-2,4,6-trienamid)butanoic acid]
% ROS produced/Ctr, compared to GABA ([1]; human keratinocytes NCTC2544, 0.5 μM, versus comparison compound GABA at same concentration, FIG. 2): superior antioxidant activity | % ROS produced/Ctr (antioxidant activity) ([1]; human keratinocytes NCTC2544, 16 h pre-treatment at 0.5 μM, 1 μM, 5 μM, then 1 mM H2O2 90 min, FIG. 1): antioxidant activity | gene expression of TNF-α (2-ΔΔCt) compared to positive control [2]: reduced expression of TNF-α | gene expression of HAS1 compared to reference compound GABA ([3]; versus GABA): higher than the reference compound at both concentrations tested | gene expression of HAS1 (2^−ΔΔCt) [3]: increased gene expression of HAS1
